Data published in US10363239B2, “Method for inhibiting growth of cancer cells” (Pain Therapeutics, Inc., priority 2013, dated 2019).
Like-named read-outs stand apart in the source and are kept apart here.

What was measured:
[1] = molecular target: FLNA pentapeptide of SEQ ID NO: 1 (Bn-VAKGL) (Homo sapiens, UniProt P21333); test: FITC-NLX-based FLNA screening assay (inhibition of FITC-naloxone binding to Bn-VAKGL on streptavidin plates); details: 10 nM FITC-NLX
mu opiate receptor (MOR) = test: MOR agonist activity using [35S]GTPγS binding assay in striatal membranes; assay type: biochemical
Protocol: To assess the mu opiate receptor (MOR) agonist activity of positive compounds from the FLNA screening, compounds were tested in a [^35S]GTPγS binding assay using striatal membranes. […] This assay measures a functional consequence of receptor occupancy at one of the earliest receptor-mediated events. The assay permits traditional pharmacological parameters of potency, efficacy and antagonist affinity, with the advantage that agonist measures are not subjected to amplification or other modulation that may occur when analyzing parameters further downstream of the receptor.
Thus, striatal tissue was homogenized in 10 volumes of ice cold 25 mM HEPES buffer, pH 7.4, which contained 1 mM EGTA, 100 mM sucrose, 50 μg/ml leupeptin, 0.04 mM PMSF, 2 μg/ml soybean trypsin inhibitor and 0.2% 2-mercaptoethanol. The homogenates were centrifuged at 800×g for 5 minutes and the supernatants were centrifuged at 49,000×g for 20 minutes. The resulting pellets were suspended in 10 volume of reaction buffer, which contained 25 mM HEPES, pH 7.5, 100 mM NaCl, 50 μg/ml leupeptin, 2 μg/ml soybean trypsin inhibitor, 0.04 mM PMSF and 0.02% […].
The resultant striatal membrane preparation (200 μg) was admixed and maintained (incubated) at 30° C. for 5 minutes in reaction buffer as above that additionally contained 1 mM MgCl2 and 0.5 nM [^35S]GTPγS (0.1 μCi/assay, PerkinElmer Life and Analytical Sciences) in a total volume of 250 μl and continued for 5 minutes in the absence or presence of 0.1-10 μM of an assayed compound of interest. The reaction was terminated by dilution with 750 μl of ice-cold reaction buffer that contained 20 mM MgCl2 and 1 mM EGTA and immediate centrifugation at 16,000×g for 5 minutes.
The resulting pellet was solubilized by sonicating for 10 seconds in 0.5 ml of immunoprecipitation buffer containing 0.5% digitonin, 0.2% sodium cholate and 0.5% NP-40. Normal rabbit serum (1 μl) was added to 1 ml of lysate and incubated at 25° C. for 30 minutes. Nonspecific immune complexes were removed by incubation with 25 μl of protein A/G-conjugated agarose beads at 25° C. for 30 minutes followed by centrifugation at 5,000×g at 4° C. for 5 minutes. The supernatant was divided and separately incubated at 25° C. for 30 minutes with antibodies raised against Gαo proteins (1:1,000 dilutions).
The immunocomplexes so formed were collected by incubation at 25° C. for 30 minutes with 40 μl of agarose-conjugated protein A/G beads and centrifugation at 5,000×g at 4° C. for 5 minutes. The pellet was washed and suspended in buffer containing 50 mM Tris-HCl, pH 8.0, and 1% NP-40. The radioactivity in the suspension was determined by liquid scintillation spectrometry.

[2] = read-out: Percent Binding Inhibition, FLNA-binding compound 0.01 μM
[3] = read-out: Percent Binding Inhibition, FLNA-binding compound 0.1 μM
[4] = read-out: Percent Binding Inhibition, FLNA-binding compound 1 μM
[5] = Series B, 0.1 μM compound, relative to DAMGO
[6] = Series B, 0.1 μM compound, [35S]GTPγS binding to Gαo, striatal membranes
[7] = Series B, 1 μM compound + 1 μM β-FNA
[8] = Series B, 1 μM compound + β-FNA, relative to DAMGO + BFNA
[9] = Series B, 1 μM compound, relative to DAMGO
[10] = Series B, 1 μM compound, [35S]GTPγS binding to Gαo, striatal membranes
[11] = FLNA-binding compound 0.01 μM, read-out: Percent Binding Inhibition
[12] = FLNA-binding compound 0.1 μM, read-out: Percent Binding Inhibition
[13] = FLNA-binding compound 1 μM, read-out: Percent Binding Inhibition
[14] = Series C-1, 0.1 μM compound, relative to DAMGO
[15] = Series C-1, 0.1 μM compound, [35S]GTPγS binding to Gαo, striatal membranes
[16] = Series C-1, 1 μM compound + 1 μM β-FNA
[17] = Series C-1, 1 μM compound + β-FNA, relative to DAMGO + BFNA
[18] = Series C-1, 1 μM compound, relative to DAMGO
[19] = Series C-1, 1 μM compound, [35S]GTPγS binding to Gαo, striatal membranes

Structure (SMILES) | inhibition at 0.01 µM [1, 2] [%] | inhibition at 0.1 µM [1, 3] [%] | inhibition at 1 µM [1, 4] [%] | inhibition at 0.01 µM [1, 11] [%] | inhibition at 0.1 µM [1, 12] [%] | inhibition at 1 µM [1, 13] [%] | % DAMGO (0.1 μM) (mu opiate receptor (MOR); [14]) [%] | Concentration of FLNA-Binding Compound as Agonist 0.1 μM (mu opiate receptor (MOR); [15]) [%] | Concentration of FLNA-Binding Compound as Agonist 1 μM + BFNA (mu opiate receptor (MOR); [16]) [%] | % DAMGO + BFNA (mu opiate receptor (MOR); [17]) [%] | % DAMGO (1 μM) (mu opiate receptor (MOR); [18]) [%] | Concentration of FLNA-Binding Compound as Agonist 1 μM (mu opiate receptor (MOR); [19]) [%] | other results
COc1cc(C(=O)CC2c3c(cc4c(c3OC)OCO4)CC[N+]2(C)C)cc(OC)c1OC (stereo not drawn) [Compound B0037] | 47.4 | 53 | 52.4 |  |  |  |  |  |  |  |  |  | % DAMGO (0.1 μM) (mu opiate receptor (MOR); [5]): 76.5%; MOR agonist activity, percent [35S]GTPγS binding at the stated compound concentration (mu opiate receptor (MOR); [6]): 119.8%; MOR agonist activity, percent [35S]GTPγS binding at the stated compound concentration (mu opiate receptor (MOR); [7]): 106.2%; % DAMGO + BFNA (mu opiate receptor (MOR); [8]): 325.8%; % DAMGO (1 μM) (mu opiate receptor (MOR); [9]): 80.4%; MOR agonist activity, percent [35S]GTPγS binding at the stated compound concentration (mu opiate receptor (MOR); [10]): 186.0%
CC(=O)c1ccc(OCC(O)CN2CC(C)OC(C)C2)cc1 (stereo not drawn) [Compound A0044] |  |  |  | 32.4 | 36.9 | 39.6 |  |  |  |  |  |  | MOR agonist activity ([35S]GTPγS binding), FLNA-Binding Compound as Agonist 0.1 μM (mu opiate receptor (MOR); 0.1 μM compound): 176.2%; % DAMGO (0.1 μM) (mu opiate receptor (MOR); 0.1 μM compound relative to DAMGO): 89.8%; MOR agonist activity ([35S]GTPγS binding), FLNA-Binding Compound as Agonist 1 μM (mu opiate receptor (MOR); 1 μM compound): 209.1%; MOR agonist activity ([35S]GTPγS binding), FLNA-Binding Compound as Agonist 1 μM + BFNA (mu opiate receptor (MOR); 1 μM compound + 1 μM β-funaltrexamine): 134.7%; % DAMGO + BFNA (mu opiate receptor (MOR); 1 μM compound + BFNA relative to DAMGO + BFNA): 182.3%; % DAMGO (1 μM) (mu opiate receptor (MOR); 1 μM compound relative to DAMGO): 75.8%
CNc1ccc(S(=O)(=O)N2CCC3(CC2)OCCN3S(=O)(=O)c2ccc(NC)cc2)cc1 [Compound C0024] |  |  |  | 37.9 | 46.4 | 50.4 | 92.8 | 178.4 | 59.3 | 135.1 | 84.1 | 229.6 | 
CC(O)c1ccc(S(=O)(=O)N2CCC3(CC2)OCCN3S(=O)(=O)c2ccc(C(C)O)cc2)cc1 (stereo not drawn) [Compound C0051] | 27 | 30.4 | 36.4 |  |  |  | 65.1 | 94.4 | 55.9 | 127.0 | 73.1 | 170.4 | 
COc1cccc(CCC(=O)CC2c3c(cc4c(c3OC)OCO4)CC[N+]2(C)C)c1 (stereo not drawn) [Compound B0034] | 49.1 | 54.2 | 59.1 |  |  |  |  |  |  |  |  |  | % DAMGO (0.1 μM) (mu opiate receptor (MOR); [5]): 71.6%; MOR agonist activity, percent [35S]GTPγS binding at the stated compound concentration (mu opiate receptor (MOR); [6]): 122.5%; MOR agonist activity, percent [35S]GTPγS binding at the stated compound concentration (mu opiate receptor (MOR); [7]): 41.8%; % DAMGO + BFNA (mu opiate receptor (MOR); [8]): 80.2%; % DAMGO (1 μM) (mu opiate receptor (MOR); [9]): 88.1%; MOR agonist activity, percent [35S]GTPγS binding at the stated compound concentration (mu opiate receptor (MOR); [10]): 235.2%
COc1ccc(NC(=O)N2CCC3(CC2)OCCN3S(=O)(=O)c2ccc(OC)cc2)cc1 [Compound C0041] | 38.3 | 47 | 51.2 |  |  |  | 110.1 | 186.1 | 95.5 | 575.3 | 111.7 | 244.4 | 
CN1CCC2(CC1)NCC(=O)N2Cc1ccccc1 [Compound C0105M] | 55.7 | 62 | 68.8 |  |  |  |  |  |  |  |  |  | % DAMGO (0.1 μM) (mu opiate receptor (MOR); Series C-2, 0.1 μM compound, relative to DAMGO): 104.7%; MOR agonist activity, percent [35S]GTPγS binding at the stated compound concentration (mu opiate receptor (MOR); Series C-2, 0.1 μM compound, [35S]GTPγS binding to Gαo, striatal membranes): 198.1%; MOR agonist activity, percent [35S]GTPγS binding at the stated compound concentration (mu opiate receptor (MOR); Series C-2, 1 μM compound + 1 μM β-FNA): 73.1%; % DAMGO + BFNA (mu opiate receptor (MOR); Series C-2, 1 μM compound + β-FNA, relative to DAMGO + BFNA): 150.7%; % DAMGO (1 μM) (mu opiate receptor (MOR); Series C-2, 1 μM compound, relative to DAMGO): 88.8%; MOR agonist activity, percent [35S]GTPγS binding at the stated compound concentration (mu opiate receptor (MOR); Series C-2, 1 μM compound, [35S]GTPγS binding to Gαo, striatal membranes): 220.3%
COc1ccc(S(=O)(=O)N2CCC3(CC2)OCCN3S(=O)(=O)c2ccc(OC)c(OC)c2)cc1OC [Compound C0049] |  |  |  | 25.3 | 27.9 | 30.3 | 73.5 | 106.6 | 81.0 | 184.1 | 90.1 | 210.0 | 
